In article PMC8355150, “Bioactive recombinant human oncostatin M for NMR-based screening in drug discovery” (Scientific Reports, 2021):

Biological target: T1, Oncostatin M (OSM, rhOSM) (Homo sapiens, UniProt P13725)
T1 construct: residues 1–187
T1 sequence (P13725 26-212): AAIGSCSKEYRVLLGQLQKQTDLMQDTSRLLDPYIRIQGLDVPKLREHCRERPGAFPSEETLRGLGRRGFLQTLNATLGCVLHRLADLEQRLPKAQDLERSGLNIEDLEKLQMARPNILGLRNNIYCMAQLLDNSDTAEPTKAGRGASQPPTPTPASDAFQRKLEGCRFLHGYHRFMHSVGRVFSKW
Assay: 1H, […] HSQC NMR titration (chemical shift perturbation); fluorescence quenching (Kd […])
Assay type: binding

Q: For `O=C(O)/C=C/c1cc(-c2ccc3c(c2)OCO3)c(-c2ccc3c(c2)OCO3)o1` [OSM-SMI-10B], which Kd is on record?
A: 12.2 ± 3.9 µM
